Measurements taken from publication PMC3988085, “In Vitro Metabolism of 20(R)-25-Methoxyl-Dammarane-3, 12, 20-Triol from Panax notoginseng in Human, Monkey, Dog, Rat, and Mouse Liver Microsomes” (PLoS ONE, 2014).

Tests used:
CYP3A4 = CYP3A4 (Homo sapiens, UniProt P08684); test: Inhibition of CYP3A4 catalytic activity by 25(R)-OCH3-PPD; assay type: in vitro ADME
[1] = system: human liver microsomes (HLM); test: Metabolite formation in human liver microsomes, 60 min; assay type: in vitro ADME; details: HLM 1 mg/ml, 50 µM 25(R)-OCH3-PPD, NADPH
Experimental: (§1) 25(R)-OCH3-PPD were incubated in hepatic microsomes to examine the potential P450-mediated metabolism. Stock solutions of 2 mM 25(R)-OCH3-PPD was prepared in methanol. The final methanol concentration in the incubation was 2.5% (v/v). The liver microsomes were carefully thawed on ice before the experiment.
(§2) For NADPH dependent oxidative metabolism study, the reaction media contained 1 mg/ml of microsomal proteins, 10 mM G-6-P, 10 mM MgCl2, 1 U/ml G-6-PDH, 50 µM concentration of 25(R)-OCH3-PPD in potassium phosphate buffer (pH 7.4; 0.1 M) in a total volume of 200 µl. Negative control incubations containing no NADPH-regenerating system were conducted. All incubations were performed at 37°C in a shaking water bath for 60 min.
(§3) After 5 min preincubation at 37°C, the incubation reactions were initiated with the addition of microsome proteins. After undergoing incubation for 60 min, the reactions were terminated with an equal volume of ice-cold acetonitrile and 10 µl diazepam (5 µg/ml, internal standard) was added. This sample was vortex-mixed and centrifuged at 14,000 g for 5 min. […] The residue was reconstituted in 100 µl of methanol with 0.1% formic acid, centrifuged 10 min at 18000 rpm and then an aliquot 5 µL of the supernatant was directly injected onto the HPLC-MS system for quanlitative or quantitative analysis.

[2] = system: cynomolgus monkey liver microsomes (CyLM); test: Metabolite formation in monkey liver microsomes, 60 min; assay type: in vitro ADME; details: CyLM 1 mg/ml, 50 µM 25(R)-OCH3-PPD, NADPH
Experimental: as §1, §2, §3

[3] = system: dog liver microsomes (DLM); test: Metabolite formation in dog liver microsomes, 60 min; assay type: in vitro ADME, beagles; details: DLM 1 mg/ml, 50 µM 25(R)-OCH3-PPD, NADPH
Experimental: as §1, §2, §3

[4] = system: rat liver microsomes (RLM); test: Metabolite formation in rat liver microsomes, 60 min; assay type: in vitro ADME, Sprague-Dawley rats; details: RLM 1 mg/ml, 50 µM 25(R)-OCH3-PPD, NADPH
Experimental: as §1, §2, §3

[5] = system: mouse liver microsomes (MLM); test: Metabolite formation in mouse liver microsomes, 60 min; assay type: in vitro ADME, CD-1 mice; details: MLM 1 mg/ml, 50 µM 25(R)-OCH3-PPD, NADPH
Experimental: as §1, §2, §3

[6] = rat, in vivo, 10 mg/kg; cited from earlier work
CYP3A = test: Chemical inhibition study in human hepatic microsomes (ketoconazole); assay type: in vitro ADME
Experimental: The chemical inhibition study was performed by adding each of the specific inhibitors of P450 enzymes into the incubation of 25(R)-OCH3-PPD (3 or 10 µM) in 0.25 mg/ml HLM incubation systems containing an NADPH-regenerations system as described above. The chemical inhibitors and concentration were selected on the basis of previous reports and are as follows: α-naphthoflavone (10.0 µM) for CYP1A2, quercetin (10 µM) for CYP2C8, sulfaphenazole (10.0 µM) for CYP2C9, ticlopidine (5 µM) for CYP2C19, quinidine (10.0 µM) CYP2D6, diethyl dithiocarbamate (20 µM) for CYP2E1, and ketoconazole (0.1, 0.25, 0.5, 1 and 5 µM) for CYP3A.
The inhibitors were dissolved in dimethyl sulfoxide, and the final concentration of dimethyl sulfoxide in the incubation was 1% (v/v). The final incubation volume was 200 µl. Microsomes were preincubated for 5 min with a NADPH-regenerating system at 37°C, the reactions were initiated with the addition of 25(R)-OCH3-PPD and inhibitor. The reactions were terminated with an equal volume of ice-cold acetonitrile after 30 min of incubation. Parallel incubations without chemical inhibitors served as control. Samples were prepared as mentioned above to measure the concentration of parent and the metabolites by HPLC-MS/MS analysis.

Sequence of CYP3A4 (P08684 whole entry): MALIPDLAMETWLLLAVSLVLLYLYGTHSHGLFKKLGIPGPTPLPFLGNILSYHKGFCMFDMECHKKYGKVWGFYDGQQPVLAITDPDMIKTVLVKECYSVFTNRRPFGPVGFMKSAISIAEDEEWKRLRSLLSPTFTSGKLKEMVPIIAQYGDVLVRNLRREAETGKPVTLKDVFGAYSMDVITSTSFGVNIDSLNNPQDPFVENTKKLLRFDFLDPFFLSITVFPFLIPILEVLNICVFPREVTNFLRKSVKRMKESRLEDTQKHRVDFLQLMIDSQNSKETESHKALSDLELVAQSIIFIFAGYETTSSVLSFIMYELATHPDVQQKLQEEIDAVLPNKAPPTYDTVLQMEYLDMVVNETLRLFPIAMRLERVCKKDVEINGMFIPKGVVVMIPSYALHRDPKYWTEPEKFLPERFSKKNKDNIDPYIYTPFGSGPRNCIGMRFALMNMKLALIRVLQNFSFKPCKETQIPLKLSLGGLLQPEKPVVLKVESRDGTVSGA

**Q.** Which “inhibition of the CYP3A4 catalytic activity” value (CYP3A4) does the source give for `COC(C)(C)CCC[C@@](C)(O)C1CC[C@]2(C)C1[C@H](O)CC1[C@@]3(C)CC[C@H](O)C(C)(C)C3CC[C@]12C` (stereo partly drawn) [25(R)-OCH3-PPD, 20(R)-25-methoxyl-dammarane-3β, 12β, 20-triol] here?
**A.** NADPH and concentration-dependent

**Q.** For `CC(C)(O)CCC[C@@](C)(O)C1CC[C@]2(C)C1[C@H](O)CC1[C@@]3(C)CC[C@H](O)C(C)(C)C3CC[C@]12C` (stereo partly drawn) [Metabolite M1], which “relative amount of metabolite formed” value [1] is on record?
**A.** minor metabolite

**Q.** What about the “relative amount of metabolite formed” value [2] of the same compound?
**A.** minor metabolite

**Q.** What about the “relative amount of metabolite formed” value [3] of the same compound?
**A.** intermediate relative amount

**Q.** And the “relative amount of metabolite formed” value [4]?
**A.** dominant metabolite

**Q.** And the “relative amount of metabolite formed” value [5]?
**A.** dominant metabolite

**Q.** With `COC(C)(C)CCC[C@](C)(O)[C@H]1CC[C@]2(C)[C@@H]1[C@H](O)C[C@@H]1[C@@]3(C)CC[C@H](O)C(C)(C)[C@@H]3CC[C@]12C` [25(S)-OCH3-PPD, 20(S)-25-methoxyl-dammarane-3beta, 12beta, 20-triol] as the compound, how does the absolute bioavailability [6] read?
**A.** 19.7%

**Q.** For `CC(=O)N1CCN(c2ccc(OCC3COC(Cn4ccnc4)(c4ccc(Cl)cc4Cl)O3)cc2)CC1` (stereo not drawn) [ketoconazole], which “effect on the oxidative metabolism of 25(R)-OCH3-PPD” value (CYP3A; HLM 0.25 mg/ml, 25(R)-OCH3-PPD 10 µM, 30 min) is on record?
**A.** significant inhibitory effect

**Q.** And the “inhibition of formation of M5” value (CYP3A; HLM, ketoconazole 0.1 µM)?
**A.** completely

**Q.** What about the “effect on formation of M1 and M6” value (CYP3A; HLM, ketoconazole 5 µM) of the same compound?
**A.** inhibited

**Q.** What about the “effect on formation of M2, M3, M4, M5, M7” value (CYP3A; HLM, ketoconazole 0.1-5 µM, concentration dependent) of the same compound?
**A.** inhibited

**Q.** What about the “effect on formation of M1 and M6” value (CYP3A; HLM, ketoconazole 0.1–1 µM) of the same compound?
**A.** activated
